Each molecule was assayed against T1, human CGT (Homo sapiens, UniProt Q16880) (assay: CGT Enzyme Assay (Biological Example 2, RapidFire/MS/MS method with 0.01% Tween 80 added)). Details: enzymatic assay, CHO/CGT lysate.
T1 sequence (Q16880 21-541): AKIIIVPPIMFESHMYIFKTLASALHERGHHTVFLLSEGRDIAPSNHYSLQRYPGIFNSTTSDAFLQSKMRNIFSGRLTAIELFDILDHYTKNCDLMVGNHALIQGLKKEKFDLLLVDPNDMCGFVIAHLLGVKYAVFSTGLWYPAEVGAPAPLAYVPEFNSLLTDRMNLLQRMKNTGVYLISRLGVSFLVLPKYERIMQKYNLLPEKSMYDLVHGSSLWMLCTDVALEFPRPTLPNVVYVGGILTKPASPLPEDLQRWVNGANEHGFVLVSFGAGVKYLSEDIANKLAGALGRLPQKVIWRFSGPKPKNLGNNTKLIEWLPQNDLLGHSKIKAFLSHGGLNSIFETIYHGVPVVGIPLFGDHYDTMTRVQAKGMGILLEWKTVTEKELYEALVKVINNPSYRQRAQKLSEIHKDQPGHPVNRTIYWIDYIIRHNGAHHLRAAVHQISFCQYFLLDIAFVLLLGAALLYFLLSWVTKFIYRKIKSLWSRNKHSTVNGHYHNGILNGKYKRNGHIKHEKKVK
Type: biochemical
Method in brief: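 Lysate of CHO cells transfected with full-length human CGT, 0.5% DMSO final, 0.01% Tween 80 added; reactions stopped with methanol:acetonitrile holding internal standard. C6-NBD-dihydro-galactosylceramide and C6-NBD-dihydro-ceramide measured by RapidFire/MS/MS (ESI negative), product peak area normalized to internal standard.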

`N#Cc1ccc(N2C(=O)N(c3ccc(Cl)cc3)C3(COC3)[C@@H]2c2cccc(OC(F)(F)F)c2)cc1` [Example 47-2, (S)-4-(5-(4-chlorophenyl)-6-oxo-8-(3-(trifluoromethoxy)phenyl)-2-oxa-5,7-diazaspiro[3.4]octan-7-yl)benzonitrile] and `Cc1ccc(N2C(=O)N(c3ccc(Cl)cc3)[C@@H](c3cccc(OC(F)(F)F)c3)C23COC3)cc1` [Example 49-2] cannot be ordered by IC50: less than 1 µM for the first, less than 1 µM for the second.

First: Cc1ccc(N2C(=O)N(c3ccc(C#N)cc3)[C@H](c3cccc(C#N)c3)C2(C)C)cc1 [Example 48-1, (R)-3-(3-(4-cyanophenyl)-5,5-dimethyl-2-oxo-1-(p-tolyl)imidazolidin-4-yl)benzonitrile]
Second: Cc1ccc(N2C(=O)N(c3ccc(C#N)cc3)[C@@H](c3cccc(C#N)c3)C2(C)C)cc1 [Example 48-2, (S)-3-(3-(4-cyanophenyl)-5,5-dimethyl-2-oxo-1-(p-tolyl)imidazolidin-4-yl)benzonitrile]
The IC50 of the first is higher: 10 to 30 µM for the first, less than 1 µM for the second. The second is the more potent here.

Compared with `Cc1ccc(N2C(=O)N(c3ccc(C#N)cc3)[C@H](c3cccc(OC(F)(F)F)c3)C2(C)C)cc1` [Example 50-1, (R)-4-(4,4-dimethyl-2-oxo-3-(p-tolyl)-5-(3-(trifluoromethoxy)phenyl)imidazolidin-1-yl)benzonitrile], `Cc1ccc(N2C(=O)N(c3ccc(C#N)cc3)[C@@H](c3cccc(OC(F)(F)F)c3)C2(C)C)cc1` [Example 50-2, (S)-4-(4,4-dimethyl-2-oxo-3-(p-tolyl)-5-(3-(trifluoromethoxy)phenyl)imidazolidin-1-yl)benzonitrile] is higher in IC50: less than 1 µM for the first, 10 to 30 µM for the second.

First: CC[C@]1(C)[C@H](c2cccc(OC(F)(F)F)c2)N(c2ccc(C#N)cc2)C(=O)N1c1ccc(C#N)cc1 [Example 51-2, 4,4′-((4R,5S)-4-ethyl-4-methyl-2-oxo-5-(3-(trifluoromethoxy)phenyl)imidazolidine-1,3-diyl)dibenzonitrile]
Second: CC[C@]1(C)[C@@H](c2cccc(OC(F)(F)F)c2)N(c2ccc(C#N)cc2)C(=O)N1c1ccc(C#N)cc1 [Example 51-3, 4,4′-((4R,5R)-4-ethyl-4-methyl-2-oxo-5-(3-(trifluoromethoxy)phenyl)imidazolidine-1,3-diyl)dibenzonitrile]
The IC50 of the first is lower: less than 1 µM for the first, 1 to 10 µM for the second. The first is the more potent here.

First: CC[C@@]1(C)[C@H](c2cccc(OC(F)(F)F)c2)N(c2ccc(C#N)cc2)C(=O)N1c1ccc(C#N)cc1 [Example 51-5, 4,4′-((4S,5S)-4-ethyl-4-methyl-2-oxo-5-(3-(trifluoromethoxy)phenyl)imidazolidine-1,3-diyl)dibenzonitrile]
Second: CC[C@@]1(C)[C@@H](c2cccc(OC(F)(F)F)c2)N(c2ccc(C#N)cc2)C(=O)N1c1ccc(C#N)cc1 [Example 51-6, 4,4′-((4S,5R)-4-ethyl-4-methyl-2-oxo-5-(3-(trifluoromethoxy)phenyl)imidazolidine-1,3-diyl)dibenzonitrile]
The IC50 of the first is lower: 1 to 10 µM for the first, 10 to 30 µM for the second. The first is the more potent here.

Compared with `CCC[C@]1(C)[C@H](c2cccc(OC(F)(F)F)c2)N(c2ccc(C#N)cc2)C(=O)N1c1ccc(C#N)cc1` [Example 52-2, 4,4′-((4R,5S)-4-methyl-2-oxo-4-propyl-5-(3-(trifluoromethoxy)phenyl)imidazolidine-1,3-diyl)dibenzonitrile], `CCC[C@]1(C)[C@@H](c2cccc(OC(F)(F)F)c2)N(c2ccc(C#N)cc2)C(=O)N1c1ccc(C#N)cc1` [Example 52-3, 4,4′-((4R,5R)-4-methyl-2-oxo-4-propyl-5-(3-(trifluoromethoxy)phenyl)imidazolidine-1,3-diyl)dibenzonitrile] is higher in IC50: less than 1 µM for the first, 1 to 10 µM for the second. The first is the more potent here.

First: CCC[C@@]1(C)[C@H](c2cccc(OC(F)(F)F)c2)N(c2ccc(C#N)cc2)C(=O)N1c1ccc(C#N)cc1 [Example 52-5, 4,4′-((4S,5S)-4-methyl-2-oxo-4-propyl-5-(3-(trifluoromethoxy)phenyl)imidazolidine-1,3-diyl)dibenzonitrile]
Second: CCC[C@@]1(C)[C@@H](c2cccc(OC(F)(F)F)c2)N(c2ccc(C#N)cc2)C(=O)N1c1ccc(C#N)cc1 [Example 52-6, 4,4′-((4S,5R)-4-methyl-2-oxo-4-propyl-5-(3-(trifluoromethoxy)phenyl)imidazolidine-1,3-diyl)dibenzonitrile]
The IC50 of the first is lower: less than 1 µM for the first, 10 to 30 µM for the second. The first is the more potent here.

First: Cc1ccc(N2C(=O)N(c3ccc(C#N)cc3)C(C)(C)[C@H]2c2cccc(C#N)c2)cc1 [Example 54-1, (R)-3-(1-(4-cyanophenyl)-5,5-dimethyl-2-oxo-3-(p-tolyl)imidazolidin-4-yl)benzonitrile]
Second: Cc1ccc(N2C(=O)N(c3ccc(C#N)cc3)C(C)(C)[C@@H]2c2cccc(C#N)c2)cc1 [Example 54-2, (S)-3-(1-(4-cyanophenyl)-5,5-dimethyl-2-oxo-3-(p-tolyl)imidazolidin-4-yl)benzonitrile]
The IC50 of the first is higher: 10 to 30 µM for the first, less than 1 µM for the second.

First: Cc1ccc(N2C(=O)N(c3ccc(C#N)cc3)[C@H](c3cccc(C#N)c3)C23COC3)cc1 [Example 55-1, (R)-3-(7-(4-cyanophenyl)-6-oxo-5-(p-tolyl)-2-oxa-5,7-diazaspiro[3.4]octan-8-yl)benzonitrile]
Second: Cc1ccc(N2C(=O)N(c3ccc(C#N)cc3)[C@@H](c3cccc(C#N)c3)C23COC3)cc1 [Example 55-2, (S)-3-(7-(4-cyanophenyl)-6-oxo-5-(p-tolyl)-2-oxa-5,7-diazaspiro[3.4]octan-8-yl)benzonitrile]
The IC50 of the first is higher: 10 to 30 µM for the first, 1 to 10 µM for the second.

Compared with `Cc1ccc(N2C(=O)N(c3ccc(Cl)cc3)[C@H](c3cccc(OC(F)(F)F)c3)C2(C)C)cc1` [Example 56-1, (R)-1-(4-chlorophenyl)-4,4-dimethyl-3-(p-tolyl)-5-(3-(trifluoromethoxy)phenyl)imidazolidin-2-one], `Cc1ccc(N2C(=O)N(c3ccc(Cl)cc3)[C@@H](c3cccc(OC(F)(F)F)c3)C2(C)C)cc1` [Example 56-2, (S)-1-(4-chlorophenyl)-4,4-dimethyl-3-(p-tolyl)-5-(3-(trifluoromethoxy)phenyl)imidazolidin-2-one] is lower in IC50: 10 to 30 µM for the first, less than 1 µM for the second. The second is the more potent here.

Compared with `Cc1ccc(N2C(=O)N(c3ccc(C#N)cc3)C3(COC3)[C@H]2c2cccc(C#N)c2)cc1` [Example 57-1, (R)-3-(5-(4-cyanophenyl)-6-oxo-7-(p-tolyl)-2-oxa-5,7-diazaspiro[3.4]octan-8-yl)benzonitrile], `Cc1ccc(N2C(=O)N(c3ccc(C#N)cc3)C3(COC3)[C@@H]2c2cccc(C#N)c2)cc1` [Example 57-2, (S)-3-(5-(4-cyanophenyl)-6-oxo-7-(p-tolyl)-2-oxa-5,7-diazaspiro[3.4]octan-8-yl)benzonitrile] is lower in IC50: 10 to 30 µM for the first, less than 1 µM for the second.

From patent publication US20190134005A1 (BioMarin Pharmaceutical Inc., priority 2016, published 2019)
